From US9481648B2, “Kinase inhibitors” (Respivert Limited, priority 2013, dated 2016)

Key:
c-Src = c-Src (Homo sapiens (Human), UniProt P12931); test: c-Src enzyme inhibition (FRET, Z-LYTE); assay type: biochemical
Method: (§1) The enzyme inhibitory activities of compounds disclosed herein are determined by FRET using synthetic peptides labelled with both donor and acceptor fluorophores (Z-LYTE, Invitrogen Ltd., Paisley, UK).
(§2) The relevant enzyme (3000 ng/mL or 2000 ng/mL respectively, 2.5 μL) is incubated with the test compound (either 1 μg/mL, 0.1 μg/mL, 0.01 μg/mL, or 0.001 μg/mL, 2.5 μL each) for 2 hr at RT. The FRET peptides (8 μM, 2.5 μL), and appropriate ATP solutions (2.5 μL, 800 μM for c-Src, and 60 μM ATP for Syk) are then added to the enzymes/compound mixtures and the mixture incubated for 1 hr. Development reagent (protease, 5 μL) is added for 1 hr prior to detection in a fluorescence microplate reader (Varioskan® Flash, ThermoFisher Scientific).
(§3) In all cases, the site-specific protease cleaves non-phosphorylated peptide only and eliminates the FRET signal. Phosphorylation levels of each reaction are calculated using the ratio of coumarin emission (donor) over fluorescein emission (acceptor), for which high ratios indicate high phosphorylation and low ratios indicate low phosphorylation levels.

p38 MAPKα (MAPK14) = p38 MAPKα (MAPK14) (Homo sapiens (Human), UniProt Q16539); test: p38 MAPKα enzyme inhibition (FRET, Z-LYTE; Method 2); assay type: biochemical
Method: as §1
The inhibitory activities of test compounds against the p38 MAPKα isoform (MAPK14: Invitrogen) are evaluated indirectly by determining the level of activation\phosphorylation of the down-stream molecule, MAPKAP-K2. The p38 MAPKα protein (80 ng/mL, 2.5 μL) is mixed with the test compound (2.5 μL of either 4 μg/mL, 0.4 μg/mL, 0.04 μg/mL or 0.004 μg/mL) for 2 hr at RT. […] The mixture is incubated for 1 hr at RT. Development reagent (protease, 5 μL) is added for 1 hr prior to detection in a fluorescence microplate reader (Vanoskan® Flash, ThermoFisher Scientific).
as §3

Syk = Syk (Homo sapiens (Human), UniProt P43405); test: Syk enzyme inhibition (FRET, Z-LYTE); assay type: biochemical
Method: as §1, §2, §3

GSK 3α = GSK 3α (Homo sapiens (Human), UniProt P49840); test: GSK 3α enzyme inhibition (FRET, Z-LYTE; Method 2); assay type: biochemical; conditions: read-out: IC50 Values for Enzyme Inhibition GSK3α
Method: as §1
The inhibitory activities of compounds of the invention against the GSK 3α enzyme isoform (Invitrogen), are evaluated by determining the level of activation I phosphorylation of the target peptide. The GSK3-α protein (500 ng/mL, 2.5 μL) is mixed with the test compound (2.5 μL at either 4 μg/mL, 0.4 μg/mL, 0.04 μg/mL, or 0.004 μg/mL) for 2 hr at RT. The FRET peptide (8 μM, 2.5 μL), which is a phosphorylation target for GSK3α, and ATP (40 μM, 2.5 μL) are then added to the enzyme\compound mixture and the resulting mixture incubated for 1 hr. Development reagent (protease, 5 μL) is added for 1 hr prior to detection in a fluorescence microplate reader (Varioskan® Flash, ThermoFisher Scientific).
as §3
This method follows the same steps as Method 1 above, but utilises a shorter period of mixing of the test compound (105 minutes instead of 2 hours) with the GSK3-α protein. In addition, the concentrations of test compound employed are either 10 μg/mL, 1 μg/mL, 0.1 μg/mL, or 0.01 μg/mL

[1] = tested on: β-catenin in d-U937 cells; test: Accumulation of β catenin in d-U937 cells (assay m); assay type: cell-based, human
Method: U937 cells, a human monocytic cell line, are differentiated into macrophage-type cells by incubation with PMA (100 ng/mL) for between 48 to 72 hr. The cells are then incubated with either final concentrations of test compound or vehicle for 18 hr. The induction of β-catenin by the test compounds is stopped by replacing the media with 4% formaldehyde solution. Endogenous […] is neutralised by incubating with quenching buffer (100 μL, 0.1% sodium azide, 1% H2O2 in PBS with 0.05% Tween-20) for 20 min. The cells are washed with washing buffer (200 μL; PBS containing 0.05% Tween-20) and incubated with blocking solution (200 μL; 5% milk in PBS) for 1 hr, re-washed with washing buffer (200 μL) and then incubated overnight with anti-β-catenin antibody solution (50 μL) in 1% BSA/PBS (BD, Oxford, UK).
After washing with washing buffer (3×200 μL; PBS containing 0.05% Tween-20), cells are incubated with a HRP-conjugated secondary antibody solution (100 μL) in 1% BSA/PBS (Dako, Cambridge, UK) and the resultant signal is determined colourimetrically (OD: 450 nm with a reference wavelength of 655 nm) using TMB substrate (50 μL; R&D Systems, Abingdon, UK). This reaction is stopped by addition of 1N H2SO4 solution (50 μL). Cells are then washed with washing buffer and 2% crystal violet solution (50 μL) is applied for 30 min. After washing with washing buffer (3×200 μL), 1% SDS (100 μL) is added to each well and the plates are shaken lightly for 1 hr prior to measuring the absorbance at 595 nm (Varioskan® Flash, Thermo-Fisher Scientific).
The measured OD450-655 readings are corrected for cell number by dividing the OD450-655 by the OD595 readings.

Sequence of p38 MAPKα (MAPK14) (Q16539 whole entry): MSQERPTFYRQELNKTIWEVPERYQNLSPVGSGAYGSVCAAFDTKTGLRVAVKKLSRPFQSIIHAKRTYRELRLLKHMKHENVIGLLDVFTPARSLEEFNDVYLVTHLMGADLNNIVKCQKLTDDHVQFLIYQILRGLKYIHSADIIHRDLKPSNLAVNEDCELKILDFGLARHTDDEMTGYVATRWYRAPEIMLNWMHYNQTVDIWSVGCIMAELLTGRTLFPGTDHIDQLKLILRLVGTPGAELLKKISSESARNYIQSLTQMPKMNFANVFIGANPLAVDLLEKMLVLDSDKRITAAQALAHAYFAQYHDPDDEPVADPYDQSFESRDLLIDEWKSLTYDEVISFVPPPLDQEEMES
Sequence of GSK 3α (P49840 whole entry): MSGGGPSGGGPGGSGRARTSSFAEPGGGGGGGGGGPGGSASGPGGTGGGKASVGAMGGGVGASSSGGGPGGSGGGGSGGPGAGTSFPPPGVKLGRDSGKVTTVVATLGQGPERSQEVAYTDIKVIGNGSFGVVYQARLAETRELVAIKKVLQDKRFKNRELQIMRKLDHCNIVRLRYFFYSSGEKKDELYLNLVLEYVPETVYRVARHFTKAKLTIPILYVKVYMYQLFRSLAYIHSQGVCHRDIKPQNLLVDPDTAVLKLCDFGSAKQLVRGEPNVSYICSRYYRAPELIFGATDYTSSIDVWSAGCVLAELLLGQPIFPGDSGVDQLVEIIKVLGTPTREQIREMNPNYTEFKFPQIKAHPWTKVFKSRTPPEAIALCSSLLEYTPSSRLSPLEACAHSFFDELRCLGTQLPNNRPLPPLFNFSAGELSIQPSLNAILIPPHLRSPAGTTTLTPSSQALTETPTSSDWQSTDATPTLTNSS
Sequence of c-Src (P12931 whole entry, looked up): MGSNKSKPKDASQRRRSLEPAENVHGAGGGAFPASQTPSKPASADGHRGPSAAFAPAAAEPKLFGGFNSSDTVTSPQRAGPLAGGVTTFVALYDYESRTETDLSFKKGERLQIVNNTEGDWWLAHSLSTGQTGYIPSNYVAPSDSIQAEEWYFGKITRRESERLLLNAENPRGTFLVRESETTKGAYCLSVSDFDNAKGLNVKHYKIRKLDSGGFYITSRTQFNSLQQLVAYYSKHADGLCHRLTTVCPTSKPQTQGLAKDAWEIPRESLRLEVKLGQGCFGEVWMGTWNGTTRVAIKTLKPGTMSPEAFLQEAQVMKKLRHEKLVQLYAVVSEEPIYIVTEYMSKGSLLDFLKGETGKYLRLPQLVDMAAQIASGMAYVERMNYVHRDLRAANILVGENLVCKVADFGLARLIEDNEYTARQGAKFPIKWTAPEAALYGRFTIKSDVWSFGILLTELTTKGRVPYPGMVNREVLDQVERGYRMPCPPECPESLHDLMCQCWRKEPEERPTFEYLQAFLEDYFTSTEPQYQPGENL

| IC50 (p38 MAPKα (MAPK14)) | IC50 (GSK 3α) | Structure (SMILES) | IC50 (c-Src) | IC50 (Syk) | % β-catenin induction ([1]; test compound 1 μg/mL) | % β-catenin induction ([1]; test compound 5 μg/mL) | % β-catenin induction ([1]; test compound 10 μg/mL) |
| --- | --- | --- | --- | --- | --- | --- | --- |
| – | 738 nM | COc1cc(Nc2nccc(Oc3ccc(NC(=O)Nc4cc(C(C)(C)C)cc(NS(C)(=O)=O)c4OC)c4ccccc34)n2)cc(OCCOCCOCCO)c1 [83(c), N-(5-(tert-butyl)-3-(3-(4-((2-((3-(2-(2-(2-hydroxyethoxy)ethoxy)ethoxy)-5-methoxyphenyl)-amino)pyrimidin-4-yl)oxy)naphthalen-1-yl)ureido)-2-methoxyphenyl)methanesulfonamide] | – | – | 4% | 31% | 33% |
| 275 nM | 12600 nM | COc1c(NC(=O)Nc2ccc(Oc3ccnc(Nc4ccccc4)c3)c3ccccc23)cc(C(C)(C)C)cc1C(=O)NC1CCOCC1 [84(a), 3-[[4-[(2-Anilino-4-pyridyl)oxy]-1-naphthyl]carbamoylamino]-5-tert-butyl-2-methoxy-N-tetrahydropyran-4-yl-benzamide] | – | – | – | – | – |
| – | 905 nM | COc1cc(Nc2nccc(Oc3ccc(NC(=O)Nc4cc(C(C)(C)C)cc(NS(C)(=O)=O)c4OC)c4ccccc34)n2)cc(OCCOCCOCCN(C)C)c1 [Example 15, N-(5-(tert-Butyl)-3-(3-(4-((2-((3-(2-(2-(2-(dimethylamino)ethoxy)ethoxy)ethoxy)-5-methoxyphenyl)amino)pyrimidin-4-yl)oxy)naphthalen-1-yl)ureido)-2-methoxyphenyl)-methanesulfonamide] | – | 237 nM | −2% | −6% | −17% |
| – | 733 nM | CNC(=O)c1cc(NC(=O)Nc2ccc(Oc3ccnc(Nc4cc(OC)cc(OCCOCCOCCOC)c4)n3)c3ccccc23)cc(C(C)(C)C)c1 [Example 23, 3-(tert-Butyl)-5-(3-(4-((2-((3-methoxy-5-(2-(2-(2-methoxyethoxy)ethoxy)ethoxy)phenyl)-amino)pyrimidin-4-yl)oxy)naphthalen-1-yl)ureido)-N-methylbenzamide] | – | 147 nM | −4% | 10% | 9% |
| – | 2630 nM | COCCOCCOCCS(=O)(=O)c1cc(Nc2cc(Oc3ccc(NC(=O)Nc4cc(C(C)(C)C)cc(NS(C)(=O)=O)c4OC)c4ccccc34)ccn2)cc(OC)c1 [Example 85(y), 1-[5-tert-Butyl-3-(methanesulfonamido)-2-methoxyphenyl]-3-[4-[2-[3-methoxy-5-[2-[2-(2-methoxyethoxy)ethoxy]ethylsulfonyl]anilino]pyridin-4-yl]oxy-1-naphthyl]urea] | 206 nM | 1160 nM | – | – | – |

The next lines start with the molecule.

| Structure (SMILES) | IC50 (p38 MAPKα (MAPK14)) | IC50 (GSK 3α) | IC50 (c-Src) | IC50 (Syk) | % β-catenin induction ([1]; test compound 1 μg/mL) | % β-catenin induction ([1]; test compound 5 μg/mL) | % β-catenin induction ([1]; test compound 10 μg/mL) |
| --- | --- | --- | --- | --- | --- | --- | --- |
| COCCOCCOCCOc1cc(Nc2nccc(Oc3ccc(NC(=O)Nc4cc(C(C)(C)C)cc(NS(C)(=O)=O)c4-c4ccccc4)c4ccccc34)n2)cc(OC)c1 [83(a), N-(4-(tert-butyl)-6-(3-(4-((2-((3-methoxy-5-(2-(2-(2-methoxyethoxy)ethoxy)ethoxy)phenyl)-amino)pyrimidin-4-yl)oxy)naphthalen-1-yl)ureido)-[1,1′-biphenyl]-2-yl)methane-sulfonamide] | 142 nM | 8330 nM | 22 nM | 1160 nM | – | – | – |
| C#Cc1cc(Nc2nccc(Oc3ccc(NC(=O)Nc4cc(F)cc(N5CCOCC5)c4)c4ccccc34)n2)cc(C(=O)NCCN2CCOCC2)c1 [Example 2, 3-Ethynv-5-((4-((4-(3-(3-fluoro-5-morpholinophenyl)ureido)naphthalen-1-yl)oxy)-pyrimidin-2-yl)amino)-N-(2-morpholinoethyl)benzamide] | 37 nM | 12700 nM | 45 nM | – | −6% | −4% | – |
| C#Cc1cc(Nc2nccc(Oc3ccc(NC(=O)Nc4cc(C(C)(C)C)cc(C(=O)NC)c4OC)c4ccccc34)n2)cc(C(=O)NCCN2CCOCC2)c1 [Example 9] | – | 1630 nM | 8 nM | 27 nM | 32% | 48% | 67% |
| COCCOCCOCCOc1cc(Nc2nccc(Oc3ccc(NC(=O)Nc4cc(C(C)(C)C)cc(C(=O)NC5CC5)c4OC)c4ccccc34)n2)cc(OC)c1 [Example 33, 5-(tert-Butyl)-N-cyclopropyl-2-methoxy-3-(3-(4-((2-((3-methoxy-5-(2-(2-(2-methoxy-ethoxy)ethoxy)ethoxy)phenyl)amino)pyrimidin-4-yl)oxy)naphthalen-1-yl)ureido)-benzamide] | – | 828 nM | 11 nM | 28 nM | – | – | – |
| COCCOCCOCCOc1cc(Nc2nccc(Oc3ccc(NC(=O)Nc4cc(C(C)(C)C)cc(C(=O)NCCO)c4OC)c4ccccc34)n2)cc(OC)c1 [Example 35, 5-(tert-Butyl)-N-(2-hydroxyethyl)-2-methoxy-3-(3-(4-((2-((3-methoxy-5-(2-(2-(2-methoxy-ethoxy)ethoxy)ethoxy)phenyl)amino)pyrimidin-4-yl)oxy)naphthalen-1-yl)ureido)-benzamide] | 120 nM | 597 nM | 13 nM | 48 nM | – | – | – |
| COCCOCCOCCOc1cc(Nc2nccc(Oc3ccc(NC(=O)Nc4cc(C(C)(C)C)cc(C(=O)NCC(=O)OC)c4OC)c4ccccc34)n2)cc(OC)c1 [Example 37, Methyl 2-(5-(tert-butyl)-2-methoxy-3-(3-(4-((2-((3-methoxy-5-(2-(2-(2-methoxyethoxy)-ethoxy)ethoxy)phenyl)amino)pyrimidin-4-yl)oxy)naphthalen-1-yl)ureido)benzamido)-acetate] | – | 1520 nM | 12 nM | 43 nM | 4% | 38% | 46% |
| COc1c(NC(=O)Nc2ccc(Oc3ccnc(NCc4ccccn4)c3)c3ccccc23)cc(C(C)(C)C)cc1C(=O)NC1COC1 [Example 80, 5-(tert-Butyl)-2-methoxy-N-(oxetan-3-yl)-3-(3-(4-((2-((pyridin-2-ylmethyl)amino)pyridin-4-yl)oxy)naphthalen-1-yl)ureido)benzamide] | 18 nM | 1250 nM | 968 nM | – | 5% | 38% | 47% |
| COCCOCCOCC[S+]([O-])c1cc(Nc2cc(Oc3ccc(NC(=O)Nc4cc(C(C)(C)C)cc(NS(C)(=O)=O)c4OC)c4ccccc34)ccn2)cc(OC)c1 (stereo not drawn) [Example 85(x), 1-[5-tert-Butyl-3-(methanesulfonamido)-2-methoxyphenyl]-3-[4-[2-[3-methoxy-5-[2-[2-(2-methoxyethoxy)ethoxy]ethylsufinyl]anilino]pyridin-4-yl]oxy-1-naphthyl]urea] | – | 878 nM | – | – | – | – | – |
